Read-outs that look alike come from different tables or passages of the source.
Tests used:
[1] = system: athymic mice bearing human prostate C4-2 cancer xenografts; assay type: in vivo; conditions: for 224Ra %ID/g: 224Ra measured 2 h after i.v. injection of the named 224Ra-solution; for %ID/g of 212Pb without 212Pb ingrowth from 224Ra: 2 h after i.v. injection of the 224Ra-solution
[2] = in man; cited from earlier work
[3] = in mice; cited from earlier work

For `NC(=O)CN1CCN(CC(N)=O)CCN(CC(N)=O)C(Cc2ccc(NC(=S)NCC3CCC(C(=O)NC(Cc4ccc5ccccc5c4)C(=O)NCCCCC(NC(=O)NC(CCC(=O)O)C(=O)O)C(=O)O)CC3)cc2)CN(CC(N)=O)CC1` (centres unmarked) [NG001, p-SCN-Bn-TCMC-PSMA ligand], the “lower kidney uptake compared with [212Pb]Pb-PSMA-617” value ([1]; 2 h after injection) was 3.5 fold.

For `[Cl][212Pb][Cl]` [[212Pb]PbCl2], the tumour-to-kidney ratio ([1]; 2 h after i.v. injection of the 224Ra-solutions) was 0.04, the “224Ra %ID/g” value ([1]; Femur) was 19.40±1.97 %ID/g and the “%ID/g of 212Pb without 212Pb ingrowth from 224Ra” value ([1]; Kidneys) was 48.47±7.57 %ID/g. The “224Ra %ID/g” value ([1]; Skull) was 19.62±1.28 %ID/g and the “%ID/g of 212Pb without 212Pb ingrowth from 224Ra” value ([1]; Tumour (C4-2 xenograft)) was 1.71±1.29 %ID/g.

In the case of `[Ra]` [radium], the “radium excreted by intestinal clearance” value [2] is listed as “more than 90%” and the “renal clearance of radium” value [3] is listed as “about 70%”.

From publication PMC7527546 (Current Radiopharmaceuticals, 2020)
